These results are taken from patent US7157494B2, “Dimeric compounds and their use as anti-viral agents” (priority 2001, dated 2007).

SMILES strings stand for the structures. pEC50: −log10 of the molar value. Converted amounts (≈) assume the structure as drawn.

Usually pEC50 stands for the EC50 on a negative log10 scale, so that one unit is a factor of ten.

One data set relates to Influenza A/Sydney/5/97. It counts as cell-based. Particulars: concentration that inhibited CPE by 50%; MDCK cells, up to 72 hours, MTT.
The subject of a further data set is Influenza B/Harbin/7/95. It counts as cell-based. Particulars: concentration that inhibited CPE by 50%; MDCK cells, up to 72 hours, MTT.
For data set [1], the system named is A/Bayern/7/95 BVL006 (H1N1). Put plainly: Plaque reduction assay (PRA) in MDCK cells. The settings on record: Influenza A virus, MDCK; reduces plaque numbers by 50%; A/Bayern/7/95 (H1N1); read-out: EC50 PRA A/Bay. It counts as cell-based, influenza A H1N1. The method, then: (§1) Madin Darby Canine Kidney (MDCK) cells are seeded into six well tissue culture plates and grown to confluency via standard methods. Influenza viruses are diluted in a minimal volume of phosphate buffered saline supplemented with 0.2% bovine serum albumin to yield an estimated titre of 50–100 plaque forming units (pfu) per well. After adsorption to the MDCK cells for one hour at 37° C. in a 5% CO2 atmosphere the viral inocula is aspirated and replaced with viral growth media (minimal Eagle's media supplemented with BSA, trypsin and insulin/transferrin/selenium at optimal concentrations) containing sufficient agar or agarose (generally 1–2%) to cause the media to gel at room temperature and at 37° C. in a 5% CO2 atmosphere until plaques develop (generally 2–4 days). Plaques can be visualised with a suitable stain (e.g. 0.4% crystal violet in formal saline) before counting.
(Plaque reduction counts the foci of infection that form in a cell layer.)

The test system of data set [2] is A/New Caledonia/20/99 BVLV008 (H1N1). Nature of the data set: Plaque reduction assay (PRA) in MDCK cells. It counts as cell-based, influenza A H1N1. Particulars: reduces plaque numbers by 50%, A/New Caledonia/20/99 (H1N1). The method, then:
as §1

The subject of another data set is A/WSN/33 BVLV09 (H1N1). Put plainly: Plaque reduction assay (PRA) in MDCK cells. It counts as cell-based, influenza A H1N1. The settings on record: reduces plaque numbers by 50%, A/WSN/33 (H1N1). The method, then:
as §1

In data set [3] the test system is A/Panama/2007/99 BVLV008 (H3N2). Nature of the data set: Plaque reduction assay (PRA) in MDCK cells. It counts as cell-based, influenza A H3N2. Particulars: reduces plaque numbers by 50%, A/Panama/2007/99 (H3N2). The method, then: as §1
Data set [4] has as its system A/Sydney/5/97 BVLV015 (H3N2). Nature of the data set: Plaque reduction assay (PRA) in MDCK cells. It counts as cell-based, influenza A H3N2. Particulars: Influenza A virus, MDCK; reduces plaque numbers by 50%; A/Sydney/5/97 (H3N2); read-out: EC50 PRA A/Syd. The method, then: as §1
In data set [5] the test system is A/Victoria/3/75 BVLV017 (H3N2). Nature of the data set: Plaque reduction assay (PRA) in MDCK cells. Particulars: Influenza A virus, MDCK; reduces plaque numbers by 50%; A/Victoria/3/75 (H3N2); read-out: EC50 PRA A/Vic. It counts as cell-based, influenza A H3N2. The method, then: as §1
The subject of a further data set is B/Hong Kong/5/72 BVLV012. Put plainly: Plaque reduction assay (PRA) in MDCK cells. It counts as cell-based, influenza B. The settings on record: Influenza B virus, MDCK; reduces plaque numbers by 50%; B/Hong Kong/5/72; read-out: EC50 PRA B/HongK. The method, then: as §1
A short description of data set [6]: Rat lung retention assay (intra-tracheal dosing, compound level in lung tissue). It counts as in vivo. Particulars: rat, in vivo, 0.1 mg/kg. The method, then:
Rodents are anaesthetised and dosed with compound of interest by the intra-tracheal route at a dose volume of 0.8 ml/kg. The rodent is then held in the vertical position until full recovery is achieved. […] Any analytical method suitable for detection of this type of compound may be used. The time at which levels of compound fall below the sensitivity of the analytical techniques identified will determine the residency time of the compound in lung tissue.
Please note that all experiments included a co-dosed internal standard, namely compound 3 of International Patent Publication No. WO 02/20514, to permit comparison. The data are expressed as a ratio with respect to this compound, the structure of which is shown below.

The next data set has as its system recent clinical isolates. The settings on record: in vitro assays involving recent clinical isolates, Woods et al 1993; cited from earlier work.

Take `CC(=O)N[C@@H]1C(N=C(N)N)C=C(C(=O)O)O[C@H]1[C@H](O)[C@H](O)CO` (single isomer, unassigned) [Compound A, 4-guanidino-2-deoxy-2,3-dehydro-N-acetylneuraminic acid, reference compound]: the “ID50 A/Sydney/5/97” value in the data set on Influenza A/Sydney/5/97 came out at 0.023 ± 0.024 µg/mL (≈ 0.0692 µM). In the data set with Influenza B/Harbin/7/95, the “ID50 B/Harbin/7/95” value was determined as 0.013 ± 0.011 µg/mL (≈ 0.0391 µM). The EC50 turned out to be 0.035 µg/mL (≈ 0.105 µM) in data set [1]; 0.27 ng/mL (≈ 0.000812 µM) in data set [2] (Influenza A virus, H1N1, MDCK); 0.056 µg/mL (≈ 0.169 µM) in the data set on A/WSN/33 BVLV09 (H1N1) (Influenza A virus, MDCK); 2.7 ng/mL (≈ 0.00812 µM) in [3] (Influenza A virus, H3N2, MDCK, read-out: EC50 PRA A/Pan); 2.4 ng/mL (≈ 0.00722 µM) in [4]; 5.5 ng/mL (≈ 0.0166 µM) in data set [5]. Besides, the EC50 in the data set on B/Hong Kong/5/72 BVLV012 was 0.021 µg/mL (≈ 0.0632 µM). The “EC50 PRA A/New” value in data set [2] was 0.23 ng/mL (≈ 0.000692 µM). Also, the “EC50 PRA A/WSN” value in the data set on A/WSN/33 BVLV09 (H1N1) is over 100 ng/mL. Further, in data set [3], the “EC50 PRA A/Pan” value turned out to be 3 ng/mL (≈ 0.00903 µM). The “Ratio Mean [lung] [cmpd]/PCT AU01/01128 compound 3” value in data set [6] (48 h) is recorded as 0.26; in [6] (168 h), 0.08. Also, the concentration at 48 h stood at 352 ng/g in [6] (Mean [cmpd] ng/g) and 421 ng/g in data set [6] ([cmpd] ng/g). In data set [6] (Mean [cmpd] ng/g), this compound yielded a concentration at 168 h of 61 ng/g. For the same compound, the pEC50 with recent clinical isolates is 6.80 to 7.70.
